Laboratory results taken from article PMC5374420, “In Search of Small Molecule Inhibitors Targeting the Flexible CK2 Subunit Interface” (Pharmaceuticals, 2017).
Where a SMILES comes first, the peptide text is derived from it. Bridges are numbered along the chain shown (N, C = ends).

System: WT MCF-10A cells
Test: Cell death / viability, LIVE&DEAD assay, WT cells
Type: cell-based
Experimental: Figure 8 Cellular effects of TAT-Pc 13. (A) MCF-10A cells were incubated with 25 µM of TAT-Pc 13 for 3 h and imaged with phase microscopy (upper panel) or with increasing concentrations of TAT-Pc 13 for 2 h and cell viability was evaluated using the LIVE&DEAD™ assay. Live cells fluoresce bright green (530 nm), whereas dead cells fluoresce red-orange (645 nm) (lower panel, scale bare: 100 µm); (B) WT (○-○) or CK2β-depleted (●-●) MCF-10A cells were incubated for 4 h with increasing concentrations of TAT-Pc 13 and cell death was evaluated using the LIVE&DEAD™ assay recording fluorescence at 645 nm. Representative data shown from two independent experiments in duplicate; (C) MCF-10A cells were pre-treated in the absence or presence of 20 µM z-VAD for 5 h and then incubated for 4 h with 25 µM random TAT-Pc 13 or TAT-Pc 13 and cell viability was evaluated as in (A) (scale bare: 100 µm); and (D) intracellular events induced by increasing concentrations of TAT-Pc 13. After 12 h of treatment, 786-O cells were lysed and analyzed by Western blot. TEXT PRINTED IN THE PICTURE: (B) TAT-Pc 13: TAT-Pc 13 (μM): 48; TAT-Pc 13 (μM): 60 DOUBTS OF THE COPYIST ABOUT THIS PICTURE: Panel B: 48 and 60 are printed in red at the x axis, where dashed lines drop from the two curves at about 50 on the Cell death (%) axis. No measure name (e.g. IC50) is printed with them.
Cells were seeded in 96-well microtiter plates at a concentration of 1 × 10^5 cells/mL and were allowed to attach for 24 h at 37 °C in 5% CO2. Cells were then exposed to different concentrations of TAT-Pc 13 for the indicated time. Cell viability was evaluated using the fluorescence-based LIVE&DEAD™ assay (Molecular Probes, Thermo Fisher Scientific, Courtaboeuf, France) according to the manufacturer. Images were taken with an Apotome-equipped Zeiss Axioimager microscope (Zeiss, Oberkochen, German) recording the fluorescence at 530 nm (Live cells) and 645 nm (dead cells) respectively using a FluoStar Optima plate reader (BMG LabTech, Ortenberg, Germany).

[1] = both WT and CK2β-depleted MCF-10A cells, 4 h

## CC[C@H](C)[C@@H]1NC(=O)[C@H](CCCCN)NC(=O)[C@H](Cc2ccccc2)NC(=O)CNC(=O)[C@H](Cc2ccc(O)cc2)NC(=O)[C@H](CC(C)C)NC(=O)[C@H](CCCNC(=N)N)NC(=O)CNC(=O)CNC(=O)[C@@H](NC(=O)[C@H](CCC(N)=O)NC(=O)[C@@H]2CCCN2C(=O)[C@@H]2CCCN2C(=O)[C@H](CCCNC(=N)N)NC(=O)[C@H](CCCNC(=N)N)NC(=O)[C@H](CCCNC(=N)N)NC(=O)[C@H](CCC(N)=O)NC(=O)[C@H](CCCNC(=N)N)NC(=O)[C@H](CCCNC(=N)N)NC(=O)[C@H](CCCCN)NC(=O)[C@H](CCCCN)NC(=O)[C@H](CCCNC(=N)N)NC(=O)CN)CCCCNC(=O)CNC(=O)CNC(=O)[C@H](Cc2c[nH]cn2)NC1=O [TAT-Pc 13] (H-GRKKRRQRRRPPQKGGRLYGFKIHGG; lactam 14-C; N-terminus assumed)
[1]
  concentration at which cell death became massive: 50 to 60 µM
  concentration at which cell death was already detectable: 25 µM
Three hours after addition, 25 µM (Figure 8A), phase microscopy
  cells rounded up and shrank: more than 50%
